23 compounds from US20060178374A1, “Aminoheteroaryl compounds as protein kinase inhibitors” (AGOURON PHARMACEUTICALS, INC., priority 2004, published 2006) can be followed below.

Molecules are shown by their SMILES.

HGFR (c-Met), sequence (P08581 974-1390): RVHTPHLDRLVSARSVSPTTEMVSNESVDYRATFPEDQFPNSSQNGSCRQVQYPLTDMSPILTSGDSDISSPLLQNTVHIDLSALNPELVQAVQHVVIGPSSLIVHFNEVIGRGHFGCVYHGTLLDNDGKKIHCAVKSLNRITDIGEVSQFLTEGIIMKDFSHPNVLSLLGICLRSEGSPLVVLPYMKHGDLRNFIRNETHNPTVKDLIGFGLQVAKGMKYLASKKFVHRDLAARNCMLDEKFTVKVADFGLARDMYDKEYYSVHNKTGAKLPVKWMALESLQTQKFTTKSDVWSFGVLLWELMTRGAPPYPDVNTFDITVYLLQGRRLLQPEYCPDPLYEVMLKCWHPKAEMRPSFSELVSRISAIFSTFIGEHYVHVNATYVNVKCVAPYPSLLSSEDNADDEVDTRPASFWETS

One assay concerns the target HGFR (c-Met) (Homo sapiens, UniProt P08581). In words: HGFR Continuous-Coupled Spectrophotometric Assay. The assay is classed as biochemical. The conditions noted are these: HGFR enzyme 50 nM, Met-2 peptide substrate, 37° C. Here is the method:
The general procedure is as follows: compounds and kinase assay reagents are introduced into test wells. The assay is initiated by addition of the kinase enzyme. Enzyme inhibitors reduce the measured activity of the enzyme.
In the continuous-coupled spectrophotometric assay the time-dependent production of ADP by the kinase is determined by analysis of the rate of consumption of NADH by measurement of the decrease in absorbance at 340 nm. As the PK produces ADP it is re-converted to ATP by reaction with phosphoenol pyruvate and pyruvate kinase. Pyruvate is also produced in this reaction. Pyruvate is subsequently converted to lactate by reaction with lactate dehydrogenase, which simultaneously converts NADH to NAD.
HGFR Continuous-Coupled Spectrophotometric Assay
This assay analyzes the tyrosine kinase activity of HGFR on the Met-2 substrate peptide, a peptide derived from the activation loop of the HGFR.
• 1. […] Dissolve up in 200 mM HEPES, pH 7.5 at 10 mM stock. • 3. 1 M PEP (phospho-enol-pyruvate) in 200 mM HEPES, pH 7.5 • 4. 100 mM NADH (B-Nicotinamide Adenine Dinucleotide, Reduced Form) in 200 mM HEPES, pH 7.5 • 5. 4 M MgCl2 (Magnesium Chloride) in ddH2O 6. 1 M DTT (Dithiothreitol) in 200 mM HEPES, pH 7.5 • 7. 15 Units/mL LDH (Lactic Dehydrogenase) • 8. 15 Units/mL PK (Pyruvate Kinase) • 9. 5M NaCl dissolved in ddH2O • 10. Tween-20 (Protein Grade) 10% Solution • 11. 1 M HEPES buffer: (N-[2-Hydroxethyl]piperazine-N-[2-ethanesulfonic acid]) Sodium Salt. Dissolve in ddH2O, adjust pH to 7.5, bring volume to 1 L. Filter at 0.1 μm. • 12. […] 100% DMSO (SIGMA) • 14. […] Beckman DU-650 w/ micro cell holders • 18. Beckman 4-position micro cell cuvette Procedure:
Prep Dilution Buffer (DB) for Enzyme (For 30 mL prep) • 1. DB final concentration is 2 mM DTT, 25 mM NaCl2, 5 mM MgCl2, 0.01% Tween-20, and 50 mM HEPES buffer, pH 7.5. • 2. Make up 50 mM HEPES by adding 1.5 mL 1 M HEPES into 28.1 mL of ddH2O. Add rest of the reagents. Into 50 mL conical vial, add 60 μL of 1M DTT, 150 μL 5M NaCl2, 150 μL 1M MgCl2, and 30 μL of 10% Tween-20 to give total volume of 30 mL. • 3. Vortex for 5-10 seconds. • 4. Aliquot out DB at 1 mL/tube and label tubes as “DB HGFR” • 5. Note: This can be prepared and stored ahead of time. • 6. Freeze un-used aliquots in microcentrifuge tubes at −20° C. freezer.
Prep Compounds • 1. For compound dilution plate, add 4 μL of 10 mM stock into column 1 of plate, and bring volume to 100 μL with 100% DMSO. • 2. Set up the Precision 2000 dilution method. A final concentration of 200 μM compound in 50% DMSO, 100 mM HEPES (1:2 serial dilution).
Prep Coupled Enzymatic Buffer:
1. Final concentration in assay:
• 2. For a 10 mL reaction buffer add 10 μL of 1M PEP, 33 μL of 100 mM NADH, 50 μL of 4M MgCl2, 20 μL of 1M DTT, 6 μL of 500 mM ATP, and […] of 10 mM Met-2 peptide into 100 mM HEPES buffer pH 7.5 and vortex/mix. • 3. Add coupling enzymes, LDH and PK, into reaction mix. Mix by gentle inversion.
1. Spectrophotometer settings:
• 2. Add 85 μL of CE reaction mix into each well of assay plate. • 3. Add 5 μL of diluted compound into a well of the assay plate. • 4. Add 5 μL of 50% DMSO for negative control into last column of assay plate. • 5. Mix with multi-channel pipettor or orbital shaker. • 6. Pre-incubate for 10 minutes at 37° C. • 7. Add 10 μL of 500 nM HGFR to each well of assay plate; the final HGFR concentration is 50 nM in a total final volume of 100 μL. • 8. Measure activity for 10 minutes at λ=340 nm and 37° C.
Ki data were obtained using the HGFR Continuous-Coupled Spectrophotometric Assay, and IC50 data were obtained using the Cellular HGFR Autophosphorylation Assay, both of which are described above.
With `CC(Oc1cc(-c2ccc(-c3ccno3)cc2)cnc1N)c1c(Cl)ccc(F)c1Cl` (centres unmarked) [Example 25, 3-[1-(2,6-dichloro-3-fluorophenyl)ethoxy]-5-(4-isoxazol-5-ylphenyl)pyridin-2-amine], affinity was put at a Ki of 87.7 nM.
For the compound `COc1cc(-c2cnc(N)c(OC(C)c3c(Cl)ccc(F)c3Cl)c2)ccc1CO` (centres unmarked) [Example 26, (4-{6-amino-5-[1-(2,6-dichloro-3-fluorophenyl)ethoxy]pyridin-3-yl}-2-methoxyphenyl) methanol], the affinity, expressed as Ki, was 79.5 nM.
Same read-out and setting: the result for `COc1cc(-c2cnc(N)c(OC(C)c3c(Cl)ccc(F)c3Cl)c2)ccc1CN1C[C@@H](C)N[C@@H](C)C1` (stereo partly drawn) [Example 27, 3-[1-(2,6-dichloro-3-fluorophenyl)ethoxy]-5-(4-{[(3R,5S)-3,5-dimethylpiperazin-1-yl]methyl}-3-methoxyphenyl)pyridin-2-amine] reads 21.6 nM.
Same read-out and setting: next, `COc1cc(-c2cnc(N)c(OC(C)c3c(Cl)ccc(F)c3Cl)c2)ccc1C(=O)N1CCNCC1` (centres unmarked) [Example 28, 3-[1-(2,6-dichloro-3-fluorophenyl)ethoxy]-5-[3-methoxy-4-(piperazin-1-ylcarbonyl)phenyl]pyridin-2-amine]: 26.4 nM; `COc1cc(-c2cnc(N)c(OC(C)c3c(Cl)ccc(F)c3Cl)c2)ccc1CN1CCNCC1` (centres unmarked) [Example 29, 3-[1-(2,6-dichloro-3-fluorophenyl)ethoxy]-5-[3-methoxy-4-(piperazin-1-ylmethyl)phenyl]pyridin-2-amine]: 12.3 nM.
For the compound `CC(Oc1cc(-c2ccc(C3(O)CCNCC3)nc2)cnc1N)c1c(Cl)ccc(F)c1Cl` (centres unmarked) [Example 30], the inhibition constant (Ki) was 21.9 nM.
Compound `COc1cc(-c2cnc(N)c(OC(C)c3c(Cl)ccc(F)c3Cl)c2)ccc1COC(=O)N(C)C` (centres unmarked) [Example 31, 4-{6-amino-5-[1-(2,6-dichloro-3-fluorophenyl)ethoxy]pyridin-3-yl}-2-methoxybenzyl dimethylcarbamate] registered an inhibition constant (Ki) of 149 nM.
In turn, `CC(Oc1cc(-c2ccc(OCC(=O)N3CCNCC3)cc2)cnc1N)c1c(Cl)ccc(F)c1Cl` (centres unmarked) [Example 33, 2-(4-{6-Amino-5-[1-(2,6-dichloro-3-fluoro-phenyl)-ethoxy]-pyridin-3-yl}-phenoxy)-1-piperazin-1-yl-ethanone] came in with a Ki of 14700 nM.
As for `CC(Oc1cc(-c2ccc(OC3CCNCC3)cc2)cnc1N)c1c(Cl)ccc(F)c1Cl` (centres unmarked) [Example 34, 3-[1-(2,6-Dichloro-3-fluoro-phenyl)-ethoxy]-5-[4-(piperidin-4-yloxy)-phenyl]-pyridin-2-ylamine], the Ki worked out at 40 nM.
Turning to `C[C@@H]1CN(C(=O)c2ccc(-c3cnc(N)c(OC4CCCCc5ccc(F)cc54)c3)cc2)C[C@H](C)N1` (stereo partly drawn) [Example 36, {4-[6-Amino-5-(3-fluoro-6,7,8,9-tetrahydro-5H-benzocyclohepten-5-yloxy)-pyridin-3-yl]-phenyl}-((3R,5S)-3,5-dimethyl-piperazin-1-yl)-methanone], the affinity, expressed as Ki, was 6280 nM.
On the same count and under the same terms, the result for `Nc1ncc(-c2ccc(OCCN3CCCC3)cc2)cc1OC1CCCCc2ccc(F)cc21` (centres unmarked) [Example 37, 3-(3-Fluoro-6,7,8,9-tetrahydro-5H-benzocyclohepten-5-yloxy)-5-[4-(2-pyrrolidin-1-yl-ethoxy)-phenyl]-pyridin-2-ylamine] reads 8270 nM; that for `CS(=O)(=O)Nc1ccc(-c2cnc(N)c(OC3CCCCc4ccc(F)cc43)c2)cc1` (centres unmarked) [Example 38, N-{4-[6-Amino-5-(3-fluoro-6,7,8,9-tetrahydro-5H-benzocyclohepten-5-yloxy)-pyridin-3-yl]-phenyl}-methanesulfonamide], 7120 nM.
Same read-out and setting: next, `CC(Oc1cc(-c2ccc(NC(=O)N3CCC(NC4CC4)CC3)cc2)cnc1N)c1c(Cl)ccc(F)c1Cl` (centres unmarked) [Example 39, 4-Cyclopropylamino-piperidine-1-carboxylic acid (4-{6-amino-5-[1-(2,6-dichloro-3-fluoro-phenyl)-ethoxy]-pyridin-3-yl}-phenyl)-amide]: 95 nM; `CC(Oc1cc(-c2ccc(NC(=O)N3CCNCC3)cc2)cnc1N)c1c(Cl)ccc(F)c1Cl` (centres unmarked) [Example 40, Piperazine-1-carboxylic acid (4-{6-amino-5-[1-(2,6-dichloro-3-fluoro-phenyl)-ethoxy]-pyridin-3-yl}-phenyl)-amide]: 88 nM; `CCOC(=O)c1[nH]c(C)c(-c2cnc(N)c(OC(C)c3c(Cl)ccc(F)c3Cl)c2)c1C` (centres unmarked) [Example 41, 4-{6-Amino-5-[1-(2,6-dichloro-3-fluoro-phenyl)-ethoxy]-pyridin-3-yl}-3,5-dimethyl-1H-pyrrole-2-carboxylic acid ethyl ester]: 2090 nM.
Take `Cc1[nH]c(C(=O)O)c(C)c1-c1cnc(N)c(OC(C)c2c(Cl)ccc(F)c2Cl)c1` (centres unmarked) [Example 42, 4-{6-Amino-5-[1-(2,6-dichloro-3-fluoro-phenyl)-ethoxy]-pyridin-3-yl}-3,5-dimethyl-1H-pyrrole-2-carboxylic acid]: the Ki is 1250 nM.
Still for that read-out and setting: next, `Cc1[nH]c(C(=O)NCCCN(C)C)c(C)c1-c1cnc(N)c(OC(C)c2c(Cl)ccc(F)c2Cl)c1` (centres unmarked) [Example 43, 4-{6-Amino-5-[1-(2,6-dichloro-3-fluoro-phenyl)-ethoxy]-pyridin-3-yl}-3,5-dimethyl-1H-pyrrole-2-carboxylic acid (3-dimethylamino-propyl)-amide]: 451 nM; `Cc1[nH]c(C(=O)NCCN(C)C)c(C)c1-c1cnc(N)c(OC(C)c2c(Cl)ccc(F)c2Cl)c1` (centres unmarked) [Example 44, 4-{6-Amino-5-[1-(2,6-dichloro-3-fluoro-phenyl)-ethoxy]-pyridin-3-yl}-3,5-dimethyl-1H-pyrrole-2-carboxylic acid (2-dimethylamino-ethyl)-amide]: 262 nM.
Take `CC(Oc1cc(-c2cccc(NC(=O)N3CCNCC3)c2)cnc1N)c1c(Cl)ccc(F)c1Cl` (centres unmarked) [Example 45, Piperazine-1-carboxylic acid (3-{6-amino-5-[1-(2,6-dichloro-3-fluoro-phenyl)-ethoxy]-pyridin-3-yl}-phenyl)-amide]: the affinity, expressed as Ki, was 96 nM.
On the same count and under the same terms, the result for `C[C@@H](Oc1nc(-c2ccc(C(=O)O)cc2)cnc1N)c1c(Cl)ccc(F)c1Cl` [Example 47, 4-{5-Amino-6-[(R)-1-(2,6-dichloro-3-fluoro-phenyl)-ethoxy]-pyrazin-2-yl}-benzoic acid] reads 154 nM; that for `C[C@@H](Oc1nc(-c2ccc(C(=O)N3CCNCC3)cc2)cnc1N)c1c(Cl)ccc(F)c1Cl` [Example 48, (4-{5-Amino-6-[(R)-1-(2,6-dichloro-3-fluoro-phenyl)-ethoxy]-pyrazin-2-yl}-phenyl)-piperazin-1-yl-methanone], 27 nM; that for `C[C@@H](Oc1nc(-c2ccc(C(=O)N3CCN(C(=O)OC(C)(C)C)CC3)cc2)cnc1N)c1c(Cl)ccc(F)c1Cl` [Example 49, 4-(4-{5-Amino-6-[(R)-1-(2,6-dichloro-3-fluoro-phenyl)-ethoxy]-pyrazin-2-yl}-benzoyl)-piperazine-1-carboxylic acid tert-butyl ester], 335 nM.

The same assay, now with this note: compound at 1 μM.
On to `Nc1ncc(Br)cc1OC1CCCCc2ccc(F)cc21` (centres unmarked) [Example 35, 5-Bromo-3-(3-fluoro-6,7,8,9-tetrahydro-5H-benzocyclohepten-5-yloxy)-pyridin-2-ylamine], for which the inhibition at 1 µM was determined as 9%.

The term Ki denotes a dissociation constant, usually derived from enzyme kinetics or from competition with a known ligand. Lower therefore signals a stronger hold on the target. One may read the inhibition as the drop in the measured response relative to a control, in per cent. Higher therefore signals a strong effect.
